Reference: patent US11472842B2 (Protagonist Therapeutics, Inc., priority 2015, dated 2022)
Where two headings read alike, the source gives them in different places.

Biological target: T1, human ferroportin (Homo sapiens, UniProt Q9NP59)
T1 construct: expressed in transfected cells
T1 sequence (Q9NP59 1-571): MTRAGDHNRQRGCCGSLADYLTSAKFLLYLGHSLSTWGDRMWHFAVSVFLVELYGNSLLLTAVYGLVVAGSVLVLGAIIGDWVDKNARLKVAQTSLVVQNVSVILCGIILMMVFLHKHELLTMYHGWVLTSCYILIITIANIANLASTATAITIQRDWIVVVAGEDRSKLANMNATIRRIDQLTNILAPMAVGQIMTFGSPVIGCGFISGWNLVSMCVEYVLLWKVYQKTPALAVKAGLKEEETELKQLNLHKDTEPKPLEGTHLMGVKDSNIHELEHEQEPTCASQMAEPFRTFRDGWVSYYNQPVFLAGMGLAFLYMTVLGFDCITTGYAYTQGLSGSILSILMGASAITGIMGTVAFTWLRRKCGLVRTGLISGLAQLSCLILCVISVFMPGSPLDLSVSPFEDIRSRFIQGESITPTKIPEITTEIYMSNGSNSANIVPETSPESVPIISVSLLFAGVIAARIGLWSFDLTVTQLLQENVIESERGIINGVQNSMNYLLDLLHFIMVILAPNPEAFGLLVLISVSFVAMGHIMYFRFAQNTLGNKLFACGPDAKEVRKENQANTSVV
Assay: Ferroportin internalization / degradation, HEK-GFP cell based assay (HEK293 cells stably expressing ferroportin-GFP, decrease in GFP fluorescence)
Procedure: Peptide analogues were tested in vitro for induction of internalization of the human ferroportin protein. Following internalization, the […] are degraded. The assay measures a decrease in fluorescence of the receptor.
The cDNA encoding the human ferroportin (SLC40A1) was cloned from a cDNA clone from Origene (NM_014585). The DNA encoding the ferroportin was amplified by PCR using primers also encoding terminal restriction sites for subcloning, but without the termination codon. The ferroportin receptor was subcloned into a mammalian GFP expression vector containing a neomycin (G418) resistance marker in such that the reading frame of the ferroportin was fused in frame with the GFP protein. The fidelity of the DNA encoding the protein was confirmed by DNA sequencing. HEK293 cells were used for transfection of the ferroportin-GFP receptor expression plasmid. The cells were grown according to standard protocol in growth medium and transfected with the plasmids using Lipofectamine (manufacturer's protocol, Invitrogen). […] The cells were propagated and frozen in aliquots.
Compound was added to desired final concentration for at least 18 hours in the incubator. […] Compound was added to desired final concentration for at least 18 hours but no more than 24 hours in the incubator.
The EC50 of these reference compounds for ferroportin degradation was determined according to the activity assay described above. These peptides served as control standards.
These values were determined as described herein.

[1] = Table 3 monomer analogues, ferroportin-GFP HEK293 cells, 18-24 h incubation, read-out: HEK-GFP cell based assay (potency EC50)

Molecule `CCCCCCCCCCCC(=O)N[C@@H](CCC(=O)NCCCC[C@@H]1NC(=O)[C@H](Cc2ccccc2)NC(=O)[C@H](CCCCN)NC(=O)[C@H]([C@@H](C)CC)NC(=O)[C@@H](NC(=O)[C@@H]2CCCN2C(=O)[C@H](Cc2ccccc2)NC(=O)[C@H](Cc2c[nH]cn2)NC(=O)[C@@H](NC(=O)[C@H](CC(=O)O)NC(=O)CC(C)C)[C@@H](C)O)CSSC[C@@H](C(=O)N[C@@H](CCCCN)C(N)=O)NC(=O)CNC(=O)[C@H](CCCCN)NC(=O)[C@H](CO)NC(=O)[C@H](CCCNC(=N)N)NC(=O)[C@@H]2CCCN2C1=O)C(=O)O` [Compound 12] has a DC50 [1] of 14 nM.
`CCCCCCCCCCCCCCCC(=O)NCCCCCC(=O)N[C@@H](CCC(=O)NCCCC[C@@H]1NC(=O)[C@H]([C@@H](C)CC)NC(=O)[C@@H](NC(=O)[C@@H]2CCCN2C(=O)[C@H](Cc2ccccc2)NC(=O)[C@H](Cc2c[nH]cn2)NC(=O)[C@@H](NC(=O)[C@H](CC(=O)O)NC(=O)CC(C)C)[C@@H](C)O)CSSC[C@@H](C(=O)N[C@@H](CCCCN)C(N)=O)NC(=O)CN(C)C(=O)[C@H](CCCCN)NC(=O)[C@H](CO)NC(=O)[C@H](CCCNC(=N)N)NC(=O)[C@@H]2CCCN2C(=O)[C@H](CCC(=O)O)NC(=O)[C@H](Cc2ccccc2)NC1=O)C(=O)O` [Compound 28, Isovaleric acid-DTHFPCI-[Lys(isoGlu-Ahx-Palm)]-FEPRSK-[Sar]-CK-NH2] showed a DC50 [1] of 23 nM.
With `CCCCCCCCCCCCCCCC(=O)N[C@@H](CCC(=O)NCCCC[C@@H]1NC(=O)[C@H](Cc2ccccc2)NC(=O)[C@H](CCCCN)NC(=O)[C@H]([C@@H](C)CC)NC(=O)[C@@H](NC(=O)[C@@H]2CCCN2C(=O)[C@H](Cc2ccccc2)NC(=O)[C@H](Cc2c[nH]cn2)NC(=O)[C@@H](NC(=O)[C@H](CC(=O)O)NC(=O)CC(C)C)[C@@H](C)O)C(C)(C)SSC(C)(C)[C@@H](C(=O)N[C@@H](CCCCN)C(N)=O)NC(=O)CNC(=O)[C@H](CCCCN)NC(=O)[C@H](CO)NC(=O)[C@H](CCCNC(=N)N)NC(=O)[C@@H]2CCCN2C1=O)C(=O)O` [Compound 3, Isovaleric acid-DTHFP-[Pen]-IKF-[Lys(IsoGlu-Palm)]-PRSKG-[Pen]-K-NH2] the DC50 [1] was 418 nM.
`CC[C@H](C)[C@H](NC(=O)[C@H](CS)NC(=O)[C@@H](NC(=O)[C@@H]1CCCN1C(=O)[C@H](Cc1ccccc1)NC(=O)[C@H](Cc1c[nH]cn1)NC(=O)[C@@H](NC(=O)[C@@H](N)CC(=O)O)[C@@H](C)O)[C@@H](C)CC)C(=O)N[C@@H](Cc1ccccc1)C(N)=O` [Mini-Hepcidin 1-9, reference compound] showed an EC50 (Table 9 reference compounds, ferroportin degradation, read-out: Potency EC50) of 712 nM.
Molecule `CCCCCCCCCCCCCCCC(=O)NCCOCCOCCC(=O)NCCCC[C@@H]1NC(=O)[C@H](Cc2ccccc2)NC(=O)[C@H](CCCCN)NC(=O)[C@H]([C@@H](C)CC)NC(=O)[C@@H](NC(=O)[C@@H]2CCCN2C(=O)[C@H](Cc2ccccc2)NC(=O)[C@H](Cc2c[nH]cn2)NC(=O)[C@@H](NC(=O)[C@H](CC(=O)O)NC(=O)CC(C)C)[C@@H](C)O)CSSC[C@@H](C(=O)N[C@@H](CCCCN)C(N)=O)NC(=O)CNC(=O)[C@H](CCCCN)NC(=O)[C@H](CO)NC(=O)[C@H](CCCNC(=N)N)NC(=O)[C@@H]2CCCN2C1=O` [Compound 16] has a DC50 [1] of 36 nM.
`CC[C@@H](C)[C@@H](NC(=O)[C@H](N)Cc1ccccc1)C(=O)N[C@H](CS)C(=O)N[C@@H](C(=O)N1CCC[C@@H]1C(=O)N[C@H](Cc1ccccc1)C(=O)N[C@H](Cc1c[nH]cn1)C(=O)N[C@@H](C(=O)N[C@H](CC(=O)O)C(N)=O)[C@H](C)O)[C@H](C)CC` [RI-Mini Hepcidin, Hy-DPhe-DIle-DCys-DIle-DPro-DPhe-DHis-DThr-DAsp-NH2, reference compound] gave a DC50 (Table 9 reference compounds, read-out: Potency EC50) of over 10000 nM.
`CCCCCCCCCCCCCCCC(=O)N[C@@H](CCC(=O)NCCCC[C@@H]1NC(=O)[C@H](Cc2ccccc2)NC(=O)[C@H](CCCCN)NC(=O)[C@H]([C@@H](C)CC)NC(=O)[C@@H](NC(=O)[C@@H]2CCCN2C(=O)[C@H](Cc2ccccc2)NC(=O)[C@H](Cc2c[nH]cn2)NC(=O)[C@@H](NC(=O)[C@H](CC(=O)O)NC(=O)CC(C)C)[C@@H](C)O)CSSC[C@@H](C(N)=O)NC(=O)CNC(=O)[C@H](CCCCN)NC(=O)[C@H](CO)NC(=O)[C@H](CCCNC(=N)N)NC(=O)[C@@H]2CCCN2C1=O)C(=O)O` [Compound 9] gave a DC50 [1] of 11 nM.
Molecule `CCCCCCCCCCCCCCCC(=O)NCCCCCC(=O)NCCCC[C@@H]1NC(=O)[C@H](Cc2ccccc2)NC(=O)[C@H](CCCCN)NC(=O)[C@H]([C@@H](C)CC)NC(=O)[C@@H](NC(=O)[C@@H]2CCCN2C(=O)[C@H](Cc2ccccc2)NC(=O)[C@H](Cc2c[nH]cn2)NC(=O)[C@@H](NC(=O)[C@H](CC(=O)O)NC(=O)CC(C)C)[C@@H](C)O)CSSC[C@@H](C(=O)N[C@@H](CCCCN)C(N)=O)NC(=O)CNC(=O)[C@H](CCCCN)NC(=O)[C@H](CO)NC(=O)[C@H](CCCNC(=N)N)NC(=O)[C@@H]2CCCN2C1=O` [Compound 22] has a DC50 [1] of 18 nM.
`CCCCCCCCCCCCCCCC(=O)NCCCCCC(=O)NCCCC[C@@H]1NC(=O)[C@H]([C@@H](C)CC)NC(=O)[C@@H](NC(=O)[C@@H]2CCCN2C(=O)[C@H](Cc2ccccc2)NC(=O)[C@H](Cc2c[nH]cn2)NC(=O)[C@@H](NC(=O)[C@H](CC(=O)O)NC(=O)CC(C)C)[C@@H](C)O)CSSC[C@@H](C(=O)N[C@@H](CCCCN)C(N)=O)NC(=O)CN(C)C(=O)[C@H](CCCCN)NC(=O)[C@H](CO)NC(=O)[C@H](CCCNC(=N)N)NC(=O)[C@@H]2CCCN2C(=O)[C@H](CCC(=O)O)NC(=O)[C@H](Cc2ccccc2)NC1=O` [Compound 23, Isovaleric acid-DTHFPCI-[Lys(Ahx-Palm)]-FEPRSK-[Sar]-CK-NH2] showed a DC50 [1] of 6 nM.
`CC[C@H](C)[C@@H]1NC(=O)[C@@H](NC(=O)[C@@H]2CCCN2C(=O)[C@H](Cc2ccccc2)NC(=O)[C@H](Cc2c[nH]cn2)NC(=O)[C@@H](NC(=O)[C@H](CC(=O)O)NC(=O)CC(C)C)[C@@H](C)O)CSSC[C@@H](C(=O)N[C@@H](CCCCN)C(N)=O)NC(=O)CNC(=O)[C@H](CCCCN)NC(=O)[C@H](CO)NC(=O)[C@H](CCCNC(=N)N)NC(=O)[C@@H]2CCCN2C(=O)[C@H](CCCCNC(=O)CC[C@H](NC(=O)CCCC[C@@H]2SC[C@@H]3NC(=O)N[C@@H]32)C(=O)O)NC(=O)[C@H](Cc2ccccc2)NC(=O)[C@H](CCCCN)NC1=O` [Compound 14] showed a DC50 [1] of 29 nM.
`CCCCCCCCCCCCCCCC(=O)N[C@@H](CCC(=O)NCCCC[C@@H]1NC(=O)[C@H](Cc2ccccc2)NC(=O)[C@H](CCCCN)NC(=O)[C@H]([C@@H](C)CC)NC(=O)[C@@H](NC(=O)[C@@H]2CCCN2C(=O)[C@H](Cc2ccccc2)NC(=O)[C@H](Cc2c[nH]cn2)NC(=O)[C@@H](NC(=O)[C@H](CC(=O)O)NC(=O)CC(C)C)[C@@H](C)O)CSSC[C@@H](C(=O)N[C@@H](CCCCN)C(N)=O)NC(=O)CN(C)C(=O)[C@H](CCCCN)NC(=O)[C@H](CO)NC(=O)[C@H](CCCNC(=N)N)NC(=O)[C@@H]2CCCN2C1=O)C(=O)O` [Compound 6] showed a DC50 [1] of 11 nM.
Molecule `CCCCCCCCCCCCCCCC(=O)N[C@@H](CCC(=O)NCCCC[C@@H]1NC(=O)[C@H](Cc2ccccc2)NC(=O)[C@H](CCCCN)NC(=O)[C@H]([C@@H](C)CC)NC(=O)[C@@H](NC(=O)[C@@H]2CCCN2C(=O)[C@H](Cc2ccccc2)NC(=O)[C@H](Cc2c[nH]cn2)NC(=O)[C@@H](NC(=O)[C@H](CC(=O)O)NC(=O)CC(C)C)[C@@H](C)O)CSSC[C@@H](C(N)=O)NC(=O)CN(C)C(=O)[C@H](CCCCN)NC(=O)[C@H](CO)NC(=O)[C@H](CCCNC(=N)N)NC(=O)[C@@H]2CCCN2C1=O)C(=O)O` [Compound 10] has a DC50 [1] of 10 nM.
